From patent US20100174066A1, “PROCESS FOR PREPARING CRYSTALLINE FORM I OF OLANZAPINE” (priority 2005, published 2010)

Assay: Heat sensitivity of olanzapine Form I wet crystals dried in an air tray drier; Form II content quantified by XRPD
Type: physicochemical
Conditions: 8 hours, LOQ about 0.5% by weight
Experimental: Olanzapine Form I wet crystals obtained by following the process similar to that given in Example 1 were taken and dried at different temperatures in an air tray drier for 8 hours to check the impact on the crystalline purity of Form I obtained. The results are tabulated below in Table 1:
497.5 mg of olanzapine Form I and 2.5 mg of olanzapine Form II (weight ratio of olanzapine Form Ito Form II of 99.5:0.5) were weighed and mixed with 50.0 mg of lithium fluoride. The mixture was mixed and ground three times using a mortar and pestle made of agate to get a homogeneous fine powder. A maximum quantity of the finely ground sample was packed in a sample holder and this was used as the standard for powder X-ray diffraction analysis.
500 mg of olanzapine Form I test sample was weighed and mixed with 50 mg of lithium fluoride. The mixture was mixed and ground three times using a mortar and pestle made of agate to get a homogeneous fine powder. A maximum quantity of the finely ground sample was packed in a sample holder and this was used as the test sample for the analysis.
The standard and the test sample were analyzed and the intensity at 8.60° (2θ) in the diffractogram of the test sample was compared with respect to that of the 0.5% standard. If the test sample intensity at 8.60° (2θ) is more than that of the 0.5% standard, then the presence of Form II in Form I is more than 0.5%. If the test sample intensity at 8.60° (2θ) is less than that of the 0.5% standard, then the presence of Form II in Form I is less than 0.5%.

**Q.** What does the source list for `Cc1cc2c(s1)Nc1ccccc1N=C2N1CCN(C)CC1` [Olanzapine Form I, 2-methyl-4-(4-methyl-1-piperazinyl)-10H-thieno[2,3-b][1,5]benzodiazepine]?
**A.** Form II content (%) (drying temperature 60 °C): Less than 0.5%; Form II content (%) (drying temperature 75-80 °C): Less than 0.5%; Form II content (%) (drying temperature 100 °C): Less than 0.5%; Form II content (%) (drying temperature 125 °C): More than 0.5%; Form II content (%) (drying temperature 150 °C): More than 0.5%; Form II content (%) (drying temperature 180 °C): More than 0.5%
